Data: patent publication US20070293530A1, “SULFAMIDE AND SULFAMATE DERIVATIVES AS HISTONE DEACETYLASE INHIBITORS” (METHYLGENE INC., priority 2006, published 2007)

molecular target: HDAC enzyme; assay: Inhibition of Histone Deacetylase Enzymatic Activity (Assay Examples 1 and 2); type: biochemical; settings: HDAC isoform not specified; fluorogenic Boc-Lys(Ac)-AMC or Boc-Lys(trifluoroacetyl)-AMC substrate
Protocol: The following protocol is used to assay the compounds of the invention. In the assay, the buffer used is 25 mM HEPES, pH 8.0, 137 mM NaCl, 2.7 mM KCl, 1 mM MgCl2 and the subtrate is Boc-Lys(Ac)-AMC in a 50 mM stock solution in DMSO. The enzyme stock solution is 4.08 μg/mL in buffer.
The compounds are pre-incubated (2 μl in DMSO diluted to 13 μl in buffer for transfer to assay plate) with enzyme (20 μl of 4.08 μg/ml) for 10 minutes at room temperature (35 μl pre-incubation volume). The mixture is pre-incubated for 5 minutes at room temperature. The reaction is started by bringing the temperature to 37° C. and adding 16 μl substrate. Total reaction volume is 50 μl. The reaction is stopped after 20 minutes by addition of 50 μl developer, prepared as directed by Biomol (Fluor-de-Lys developer, Cat. #KI-105). A plate is incubated in the dark for 10 minutes at room temperature before reading (λEx=360 nm, λEm=470 nm, Cutoff filter at 435 nm).
Alternatively, HDAC inhibitory activity was determined using the following assay.
A 30 mM stock of Boc-Lys(trifluoroacetyl)-AMC substrate is prepared in DMSO. 2 μL of test compound in DMSO is diluted to 50 μL in buffer (25 mM HEPES, pH 8.0, 137 mM NaCl, 2.7 mM KCl, 1 mM MgCl2, 0.1% BSA) and pre-incubated with HDAC enzyme (30 μL of a final enzyme concentration of 0.1-0.2 nM) for 10 minutes at room temperature. Reaction is started by adding 18 μL Boc-Lys(trifluoroacetyl)-AMC substrate and incubating at 37° C. for 20-30 minutes. The reaction is stopped by adding 50 μL trypsin (1 mg/mL) and a known HDAC inhibitor (such as LAQ-824). The plate is then incubated in the dark for 20 minutes at room temperature and read with Ex=360 nm, Em=470 nm, cutoff filter at 435 nm.
In the table, A≦0.2 μM; 0.2 μM<B≦0.5 μM; […]; and 1 μM<D≦6 μM.

Compound	IC50
NS(=O)(=O)NCCCC[C@H](NC(=O)OCc1cccc(Cl)c1)C(=O)Nc1nc(-c2ccccc2)cs1 [Compound 242, (S)-3-chlorobenzyl 1-oxo-1-(4-phenyl-thiazol-2-ylamino)-6-(sulfa-moylamino)-hexan-2-ylcarbamate]	≤ 200 nM
NS(=O)(=O)NCCCCCC(=O)Nc1cccc(-c2ccccc2)c1 [Compound 4, N-(Biphenyl-3-yl)-6-(sulfamoylamino)hexanamide]	≤ 200 nM
Cc1ccc(-c2nc([C@H](CCCCNS(N)(=O)=O)NC(=O)OCc3ccccc3)c[nH]2)cc1 [Compound 348, (S)-benzyl 5-(sulfamoyl-amino)-1-(2-p-tolyl-1H-imidazol-4-yl)pentyl-carbamate]	200 to 500 nM
NS(=O)(=O)NCCCCCC(=O)Nc1cc(OCc2ccccn2)cc2cccnc12 [Compound 79, N-(6-(pyridin-2-ylmethoxy)-quinolin-8-yl)-6-(sulfa-moylamino)-hexanamide]	≤ 200 nM
NS(=O)(=O)NCCCC[C@H](NC(=O)OCc1ccccc1)c1csc(-c2ccc(Br)cc2)n1 [Compound 361, (S)-benzyl 1-(2-(4-bromo-phenyl)-thiazol-4-yl)-5-(sulfamoyl-amino)-pentyl-carbamate]	200 to 500 nM
COc1ccc(NC(=O)c2csc(NC(=O)[C@H](CCCCNS(N)(=O)=O)NC(=O)OCc3ccccc3)n2)cc1 [Compound 314, (S)-benzyl 1-(4-(4-methoxy-phenyl-carbamoyl)-thiazol-2-ylamino)-1-oxo-6-(sulfamoyl-amino)-hexan-2-ylcarbamate]	≤ 200 nM
NS(=O)(=O)NCCCC[C@H](NC(=O)OCc1ccccc1)C(=O)Nc1nc(-c2ccc(C(F)(F)F)cc2)cs1 [Compound 308, (S)-benzyl 1-oxo-6-(sulfamoyl-amino)-1-(4-(4-(trifluoro-methyl)-phenyl)-thiazol-2-ylamino)-hexan-2-ylcarbamate]	≤ 200 nM
NS(=O)(=O)NCCCC[C@H](NC(=O)Cc1ccccc1)C(=O)Nc1nc(-c2ccccc2)cs1 [Compound 230a, (S)-2-(2-phenylacetamido)-N-(4-phenylthiazol-2-yl)-6-(sulfamoylamino)hexanamide]	≤ 200 nM
NS(=O)(=O)NCCCC[C@H](NC(=O)OCc1ccccc1)C(=O)Nc1cccc2cccnc12 [Compound 55, (S)-benzyl 1-oxo-1-(quinolin-8-ylamino)-6-(sulfamoyl-amino)-hexan-2-ylcarbamate]	≤ 200 nM
NS(=O)(=O)NCCCC[C@H](NC(=O)NCc1ccc(F)cc1)C(=O)Nc1nc(-c2ccccc2)cs1 [Compound 240, (S)-2-(3-(4-fluoro-benzyl)-ureido)-N-(4-phenyl-thiazol-2-yl)-6-(sulfa-moylamino)-hexanamide]	200 to 500 nM
CC(=O)N[C@@H](CCCCNS(N)(=O)=O)C(=O)Nc1cccc2cccnc12 [Compound 34, (S)-2-Acetamido-N-(quinolin-8-yl)-6-(sulfamoylamino)hexanamide]	≤ 200 nM
NS(=O)(=O)NCCCC[C@H](NC(=O)OCc1ccccc1)C(=O)Nc1nc(C(=O)Nc2ccccc2)cs1 [Compound 313, (S)-benzyl 1-oxo-1-(4-(phenyl-carbamoyl)-thiazol-2-ylamino)-6-(sulfamoyl-amino)-hexan-2-ylcarbamate]	≤ 200 nM
CCOC(=O)N[C@@H](CCCCNS(N)(=O)=O)C(=O)Nc1nc(-c2ccccc2)cs1 [Compound 252, (S)-ethyl 1-oxo-1-(4-phenylthiazol-2-ylamino)-6-(sulfamoylamino)hexan-2-ylcarbamate]	200 to 500 nM
COc1cc(NC(=O)CCCCCNS(N)(=O)=O)c2ncccc2c1 [Compound 40, N-(6-methoxy-quinolin-8-yl)-6-(sulfamoyl-amino)-hexanamide]	≤ 200 nM
NS(=O)(=O)NCCCC[C@H](NC(=O)Nc1ccccc1)C(=O)Nc1cccc2cccnc12 [Compound 211, (S)-2-(3-phenyl-ureido)-N-(quinolin-8-yl)-6-(sulfa-moylamino)-hexanamide]	≤ 200 nM
NS(=O)(=O)NCCCC[C@H](NC(=O)OCc1ccccc1)c1n[nH]c(-c2ccccc2)n1 [Compound 335, (S)-benzyl 1-(5-phenyl-1H-1,2,4-triazol-3-yl)-5-(sulfamoylamino)pentylcarbamate]	≤ 200 nM

Compound	IC50
NS(=O)(=O)NCCCC[C@H](NC(=O)c1cc2ccccc2o1)C(=O)Nc1cccc2cccnc12 [Compound 51, (S)-N-(1-oxo-1-(quinolin-8-ylamino)-6-(sulfamoyl-amino)-hexan-2-yl)-benzofuran-2-carboxamide]	200 to 500 nM
COc1cc(NC(=O)[C@H](CCCCNS(N)(=O)=O)NC(=O)OCc2ccccc2)c2ncccc2c1 [Compound 270, (S)-benzyl 1-(6-methoxy-quinolin-8-ylamino)-1-oxo-6-(sulfamoyl-amino)-hexan-2-ylcarbamate]	≤ 200 nM
COC(=O)N[C@@H](CCCCNS(N)(=O)=O)C(=O)Nc1nc(-c2ccccc2)cs1 [Compound 319, (S)-methyl 1-oxo-1-(4-phenyl-thiazol-2-ylamino)-6-(sulfamoyl-amino)-hexan-2-ylcarbamate]	≤ 200 nM
NS(=O)(=O)NCCCC[C@H](NC(=O)OCc1ccccc1)C(=O)Nc1cccc(-c2ccccc2)c1 [Compound 310, (S)-benzyl 1-(biphenyl-3-ylamino)-1-oxo-6-(sulfamoyl-amino)-hexan-2-ylcarbamate]	≤ 200 nM
NS(=O)(=O)NCCCC[C@H](NC(=O)OCc1ccccc1)C(=O)Nc1cnc2ccccc2c1 [Compound 274, (S)-benzyl 1-oxo-1-(quinolin-3-ylamino)-6-(sulfamoyl-amino)-hexan-2-ylcarbamate]	≤ 200 nM
NS(=O)(=O)NCCCC[C@H](NC(=O)NCc1ccccc1)C(=O)Nc1cccc2cccnc12 [Compound 203, (S)-2-(3-benzylureido)-N-(quinolin-8-yl)-6-(sulfamoylamino)hexanamide]	200 to 500 nM
NS(=O)(=O)NCCCC[C@H](NC(=O)OCc1ccccc1)C(=O)Nc1nc(-c2ccccc2)cs1 [Compound 60, (S)-benzyl 1-oxo-1-(4-phenylthiazol-2-ylamino)-6-(sulfamoyl-amino)-hexan-2-ylcarbamate]	≤ 200 nM
COc1ccc(-c2nc([C@H](CCCCNS(N)(=O)=O)NC(=O)OCc3ccccc3)c[nH]2)cc1 [Compound 327, (S)-benzyl 1-(2-(4-methoxyphenyl)-1H-imidazol-4-yl)-5-(sulfamoylamino)pentylcarbamate]	≤ 200 nM
COc1ccc(C(=O)N[C@@H](CCCCNS(N)(=O)=O)C(=O)Nc2cccc3cccnc23)cc1OC [Compound 207, (S)-3,4-dimethoxy-N-(1-oxo-1-(quinolin-8-ylamino)-6-(sulfamoyl-amino)hex-an-2-yl)-benzamide]	200 to 500 nM
NS(=O)(=O)NCCCC[C@H](NC(=O)OCc1ccccc1)c1csc(Nc2ccccc2)n1 [Compound 364, (S)-benzyl 1-(2-(phenyl-amino)-thiazol-4-yl)-5-(sulfamoyl-amino)-pentyl-carbamate]	500 to 1000 nM
NS(=O)(=O)NCCCC[C@H](NC(=O)c1cccc2cccnc12)C(=O)Nc1cccc2cccnc12 [Compound 209, (S)-N-(1-oxo-1-(quinolin-8-ylamino)-6-(sulfamoyl-amino)hex-an-2-yl)-quinoline-8-carboxamide]	200 to 500 nM
COc1ccc(S(=O)(=O)N[C@@H](CCCCNS(N)(=O)=O)C(=O)Nc2cccc3cccnc23)cc1OC [Compound 201, (S)-2-(3,4-dimethoxyphenylsulfonamido)-N-(quinolin-8-yl)-6-(sulfamoylamino)hexanamide]	200 to 500 nM
NS(=O)(=O)NCCCC[C@H](NC(=O)OCc1ccccc1)C(=O)Nc1nc(-c2ccc(F)cc2)cs1 [Compound 318, (S)-benzyl 1-(4-(4-fluoro-phenyl)-thiazol-2-ylamino)-1-oxo-6-(sulfamoyl-amino)-hexan-2-ylcarbamate]	200 to 500 nM
COc1ccc(-c2nc(NC(=O)[C@H](CCCCNS(N)(=O)=O)NC(=O)OCc3ccccc3)sc2C)cc1 [Compound 289, (S)-benzyl 1-(4-(4-methoxy-phenyl)-5-methyl-thiazol-2-ylamino)-1-oxo-6-(sulfamoyl-amino)-hexan-2-ylcarbamate]	200 to 500 nM
COc1cccc(-c2csc(NC(=O)[C@H](CCCCNS(N)(=O)=O)NC(=O)OCc3ccccc3)n2)c1 [Compound 309, (S)-benzyl 1-(4-(3-methoxy-phenyl)-thiazol-2-ylamino)-1-oxo-6-(sulfamoyl-amino)-hexan-2-ylcarbamate]	200 to 500 nM
COc1ccc2[nH]c(C)c(CC(=O)N[C@@H](CCCCNS(N)(=O)=O)C(=O)Nc3cccc4cccnc34)c2c1 [Compound 62, (S)-2-(2-(5-methoxy-2-methyl-1H-indol-3-yl)acetamido)-N-(quinolin-8-yl)-6-(sulfamoyl-amino)-hexanamide]	200 to 500 nM
